Reference: patent US20240199546A1, “INHIBITORS OF SOLUTE CARRIER FAMILY 6A MEMBER 19 (SLC6A19) AND METHODS OF USE THEREOF” (Maze Therapeutics, Inc., priority 2022, published 2024)

target: T1, human SLC6A19 and TMEM27 (Homo sapiens, UniProt Q695T7); assay: 13C6,15N-isoleucine uptake in CHO cells with doxycycline-inducible expression of human SLC6A19 and TMEM27, RapidFire mass spectrometry (Example B-2); type: cell-based; settings: read-out: SLC6A19_RapidFire Uptake Assay IC50
T1 construct: expressed in transfected cells
T1 sequence (Q695T7 1-634): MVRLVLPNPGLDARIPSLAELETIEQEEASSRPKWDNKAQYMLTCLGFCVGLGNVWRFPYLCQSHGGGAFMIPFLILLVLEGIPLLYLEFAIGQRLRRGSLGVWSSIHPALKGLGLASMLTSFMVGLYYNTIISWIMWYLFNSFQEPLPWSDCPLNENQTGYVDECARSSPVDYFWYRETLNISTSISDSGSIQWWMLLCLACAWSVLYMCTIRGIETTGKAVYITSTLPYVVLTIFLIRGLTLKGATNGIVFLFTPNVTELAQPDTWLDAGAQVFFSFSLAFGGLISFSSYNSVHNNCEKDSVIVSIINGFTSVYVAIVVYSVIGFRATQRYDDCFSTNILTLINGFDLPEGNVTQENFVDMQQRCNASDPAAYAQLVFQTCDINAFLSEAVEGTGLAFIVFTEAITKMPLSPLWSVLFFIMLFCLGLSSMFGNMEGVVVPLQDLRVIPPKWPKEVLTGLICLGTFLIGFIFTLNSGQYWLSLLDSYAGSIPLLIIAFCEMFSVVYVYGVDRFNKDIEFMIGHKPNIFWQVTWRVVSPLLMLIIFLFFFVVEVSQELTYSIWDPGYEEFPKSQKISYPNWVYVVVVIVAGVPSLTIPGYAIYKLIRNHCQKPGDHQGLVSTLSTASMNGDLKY
T1 sequence (Q9HBJ8 15-222 partner): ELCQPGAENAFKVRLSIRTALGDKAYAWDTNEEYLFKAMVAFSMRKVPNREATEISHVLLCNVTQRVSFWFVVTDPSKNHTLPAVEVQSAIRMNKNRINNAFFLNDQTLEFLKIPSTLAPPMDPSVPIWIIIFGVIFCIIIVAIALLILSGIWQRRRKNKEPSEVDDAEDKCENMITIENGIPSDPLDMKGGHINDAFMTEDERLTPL
Procedure: Assay ready vials of CHO cells with doxycycline inducible expression of human SLC6A19 and TMEM27 were thawed, plated in T175 flasks containing DMEM/F12 media, 10% FBS, 1% Penicillin-Streptomycin, 1× UltraGlutamate, 1 mM Sodium Pyruvate, Sodium Bicarbonate (7.5 mL of 7.5% solution in 500 mL media final), 5 μg/mL Blasticidin, 150 μg/mL Hygromycin B Gold, and 500 μg/mL G418, and incubated (humidified, 37° C. with 5% CO2) for 48 hours. Media was then removed, flasks were washed with 20 mL of DPBS, and 5 mL of TrypLE™ Express was added to each flask to initiate cell dissociation. After 5 minutes, 10 mL of cell culture media was added to each flask and mixed. The cell suspension was collected and centrifuged for 5 minutes at 200×g. The supernatant was removed, and the pellet was resuspended in 10 mL of cell culture media. Resuspended cells were counted using a Vi-Cell. 30 μL/well (20,000 cells/well) of cell suspension was added to Poly-D-Lysine 384-well black/clear plates. Plates were incubated (humidified, 37° C. with 5% CO2) for 24 hours. To induce expression of human SLC6A19 and TMEM27, 10 μL of assay culture media containing 4 μg/mL doxycycline was added to each well. Assay plates were then incubated (humidified, 37° C. with 5% CO2) overnight. After incubation, the media was removed, and wells were washed 3 times with 40 μL of warmed DPBS. Next, 10 μL of warmed assay buffer (137 mM NaCl, 5 mM KCl, 1 mM CaCl2), 1 mM MgCl2, 10 mM HEPES, 10 mM glucose, pH 7.2) was added to each well. 10 μL/well of test compound or positive control compound to define 0% activity (i.e., 100% inhibition), was then added into each well. All compounds were plated in a duplicate 10-point dilution series that consisted of 2-fold dilutions. The plates were incubated (humidified, 37° C. with 5% C2) with compound for 20 minutes. Afterwards, 20 μL/well of 2 mM 13C6,15N-1-isoleucine was added to each well and plates were incubated again (humidified, 37° C. with 5% C02) for another 20 minutes. Assay buffer was then removed, and plates were washed. 70 μL/well of stop solution (75% acetonitrile, 25% HPLC grade water, 250 nM 1-leucine-1-13C (RapidFire standard)) was added to each well. The plates were sealed and then placed in a −20° C. freezer for 20 minutes. The plates were thawed at room temperature for 20 minutes and then centrifuge for 20 minutes at 3000 rpm. Using an ABSciex API4000 mass spectrometer, processed samples were loaded onto the graphitic carbon SPE-column. The time for aspiration, load/wash, elution and re-equilibration time was 600, 1500, 3000 and 500 milliseconds, respectively. Peak areas were calculated using RapidFire Integrator software.

| IC50 [nM] | Compound |
| --- | --- |
| 193 | O=C(NCc1cc2cc(Cl)c(OCc3ccon3)cc2[nH]1)N1CCCC1 [Compound 112, N-((5-chloro-6-(isoxazol-3-ylmethoxy)-1H-indol-2-yl)methyl)pyrrolidine-1-carboxamide] |
| 427 | CC1(C(=O)NCc2cc3ccc(OCc4cccnc4)cc3[nH]2)CC1 [Compound 55, 1-methyl-N-((6-(pyridin-3-ylmethoxy)-1H-indol-2-yl)methyl)cyclopropane-1-carboxamide] |
| 188 | CC1(C(=O)NCc2[nH]c3cc(OCc4ccccc4)ccc3c2Cl)CC1 [Compound 158, N-((6-(benzyloxy)-3-chloro-1H-indol-2-yl)methyl)-1-methylcyclopropane-1-carboxamide] |
| 493 | CC1(C(=O)NCc2cc3ccc(OCc4ccno4)cc3[nH]2)CC1 [Compound 62, N-((6-(isoxazol-5-ylmethoxy)-1H-indol-2-yl)methyl)-1-methylcyclopropanecarboxamide] |
| 5890 | CNC(=O)NCc1cc2ccc(OCc3ccon3)cc2[nH]1 [Compound 107, 1-((6-(isoxazol-3-ylmethoxy)-1H-indol-2-yl)methyl)-3-methylurea] |
| 7440 | Cn1cc(COc2ccc3cc(CNC(=O)C4(C)CC4)[nH]c3c2)nn1 [Compound 168, 1-methyl-N-((6-((1-methyl-1H-1,2,3-triazol-4-yl)methoxy)-1H-indol-2-yl)methyl)cyclopropane-1-carboxamide] |
| 1830 | CC1(C(=O)NCc2cc3ccc(NCc4ccccn4)cc3[nH]2)CC1 [Compound 4, 1-methyl-N-((6-((pyridin-2-ylmethyl)amino)-1H-indol-2-yl)methyl)cyclopropane-1-carboxamide] |
| 493 | CC1(C(=O)NCc2cc3ccc(OCc4cncs4)cc3[nH]2)CC1 [Compound 48, 1-methyl-N-((6-(thiazol-5-ylmethoxy)-1H-indol-2-yl)methyl)cyclopropane-1-carboxamide] |
| > 50000 | Cc1cc(Cc2ccc3cc(CNC(=O)C4(C)CC4)[nH]c3c2)no1 [Compound 160, 1-methyl-N-((6-((5-methylisoxazol-3-yl)methyl)-1H-indol-2-yl)methyl)cyclopropanecarboxamide] |

target: T1, human SLC6A19 and TMEM27; assay: Radiolabelled (3H) leucine uptake in CHO cells with doxycycline-inducible expression of human SLC6A19 and TMEM27 (Example B-1); type: cell-based; settings: CHO cells with doxycycline-inducible expression of human SLC6A19 and TMEM27, read-out: SLC6A19_Radioligand Uptake Assay IC50
Outline: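 CHO cells were induced with doxycycline for 18 h at 37 °C, washed in HBSS, then exposed to compounds for 1 h: 8-point, 3-fold dilutions in duplicate, 0.5% DMSO final. Uptake measured by scintillation counting after 2 h shaking. Activity normalized with positive control as 0% and DMSO as 100%.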

| Compound | IC50 [nM] |
| --- | --- |
| CO[C@H](C)C(=O)NCc1cc2cc(Cl)c(OCc3cscn3)cc2[nH]1 [Compound 292, (R)-N-((5-chloro-6-(thiazol-4-ylmethoxy)-1H-indol-2-yl)methyl)-2-methoxypropanamide] | 666 |
| Cc1cc(COc2cc3[nH]c(CNC(=O)N4CCC4C#N)cc3cc2Cl)on1 (centres unmarked) [Compound 376, N-((5-chloro-6-((3-methylisoxazol-5-yl)methoxy)-1H-indol-2-yl)methyl)-2-cyanoazetidine-1-carboxamide] | 2120 |
| CNC(=O)NCc1cc2cc(F)c(OCc3cc(C)on3)cc2[nH]1 [Compound 212, 1-((5-fluoro-6-((5-methylisoxazol-3-yl)methoxy)-1H-indol-2-yl)methyl)-3-methylurea] | 429 |
| O=C(NCc1cc2cc(Cl)c(OCc3cscn3)cc2[nH]1)N1CC(CO)C1 [Compound 368, N-((5-chloro-6-(thiazol-4-ylmethoxy)-1H-indol-2-yl)methyl)-3-(hydroxymethyl)azetidine-1-carboxamide] | > 5480 |
| COCC(=O)NCc1cc2cc(Cl)c(OCc3cscn3)cc2[nH]1 [Compound 270, N-((5-chloro-6-(thiazol-4-ylmethoxy)-1H-indol-2-yl)methyl)-2-methoxyacetamide] | 110 |
| Cc1cc(COc2cc3[nH]c(CNC(=O)[C@H](C)O)cc3cc2F)on1 [Compound 239, (S)-N-((5-fluoro-6-((3-methylisoxazol-5-yl)methoxy)-1H-indol-2-yl)methyl)-2-hydroxypropanamide] | 5880 |
| Cc1cc(COc2cc3[nH]c(CNC(=O)C[C@H](C)O)cc3cc2Cl)on1 [Compound 286, (S)-N-((5-chloro-6-((3-methylisoxazol-5-yl)methoxy)-1H-indol-2-yl)methyl)-3-hydroxybutanamide] | 910 |
| O=C(NCc1cc2cc(Cl)c(OCc3cscn3)cc2[nH]1)N1CC(O)C1 [Compound 367, N-((5-chloro-6-(thiazol-4-ylmethoxy)-1H-indol-2-yl)methyl)-3-hydroxyazetidine-1-carboxamide] | 1240 |

Continued, values first:

| IC50 [nM] | Compound |
| --- | --- |
| 286 | Cc1cc(COc2cc3[nH]c(CNC(=O)C4(C(F)F)CC4)cc3cc2Cl)on1 [Compound 565, N-((5-chloro-6-((3-methylisoxazol-5-yl)methoxy)-1H-indol-2-yl)methyl)-1-(difluoromethyl)cyclopropane-1-carboxamide] |
| 8470 | CC1(C(=O)NCc2cc3cc(C4(F)CC4)c(OCc4cscn4)cc3[nH]2)CC1 [Compound 656, N-((5-(1-fluorocyclopropyl)-6-(thiazol-4-ylmethoxy)-1H-indol-2-yl)methyl)-1-methylcyclopropane-1-carboxamide] |
| 3530 | CC(=O)NCc1cc2cc(Cl)c(OCCC3CCCO3)cc2[nH]1 (centres unmarked) [Compound 455, N-((5-chloro-6-(2-(tetrahydrofuran-2-yl)ethoxy)-1H-indol-2-yl)methyl)acetamide] |
| 1360 | Cc1cc(COc2cc3[nH]c(CNC(=O)[C@H](C)CO)cc3cc2Cl)on1 [Compound 536, (R)-N-((5-chloro-6-((3-methylisoxazol-5-yl)methoxy)-1H-indol-2-yl)methyl)-3-hydroxy-2-methylpropanamide] |
| 4760 | CC1(C(=O)NCc2cc3cc(Cl)c(CCn4ccnc4)cc3[nH]2)CC1 [Compound 589, N-((6-(2-(1H-imidazol-1-yl)ethyl)-5-chloro-1H-indol-2-yl)methyl)-1-methylcyclopropane-1-carboxamide] |
| 82.2 | Cc1cc(COc2cc3[nH]c(CNC(=O)C(F)F)cc3cc2Cl)on1 [Compound 563, N-((5-chloro-6-((3-methylisoxazol-5-yl)methoxy)-1H-indol-2-yl)methyl)-2,2-difluoroacetamide] |
| 214 | O=C(CC(F)(F)F)NCc1cc2cc(Cl)c(OCc3cscn3)cc2[nH]1 [Compound 554, N-((5-chloro-6-(thiazol-4-ylmethoxy)-1H-indol-2-yl)methyl)-3,3,3-trifluoropropanamide] |
| 367 | Cc1cc(COc2cc3[nH]c(CNC(=O)C4(C#N)CCC4)cc3cc2Cl)on1 [Compound 487, N-((5-chloro-6-((3-methylisoxazol-5-yl)methoxy)-1H-indol-2-yl)methyl)-1-cyanocyclobutane-1-carboxamide] |
| 2100 | CC1(C(=O)NCc2cc3cc(CCC#N)c(OCc4cscn4)cc3[nH]2)CC1 [Compound 641, N-((5-(2-cyanoethyl)-6-(thiazol-4-ylmethoxy)-1H-indol-2-yl)methyl)-1-methylcyclopropane-1-carboxamide] |
